For orientation: pIC50 means the IC50 on a negative log10 scale, so that one unit is a factor of ten. As a reminder, the Dmax is the greatest extent of degradation seen.

Test [1] has as its system TMD-8. Description: Antiproliferative effect in lymphoma cell line TMD-8 (CellTiter-Glo). The test is classed as cell-based. Particulars: TMD-8, 5 days; for pIC50: Homo sapiens, TMD8, 120 h. The method, then:
Experimental purpose: The experiment aims to evaluate the inhibitory effects of the test compounds on cell proliferation in the diffuse large B-cell lymphoma (DLBCL) cell lines OCI-LY10 and TMD-8.
The tumor cell lines were cultured in a 37° C., 5% CO2 incubator under the above culture conditions. Regular passage, and cells in logarithmic growth phase were taken for plating.
• (1) Cells were stained with trypan blue and viable cells were counted. • (2) The cell concentration was adjusted to an appropriate concentration.
• (3) 100 μL of cell suspension per well was added to the culture plate as shown above. • (4) The culture plate was cultured overnight in a 37° C., 5% CO2 incubator with 100% relative humidity.
Preparation of stock solution storage plate with 1000 times the initial concentration of the compound: The compound was serially diluted with DMSO from the highest concentration to the lowest concentration. The solution was prepared as needed each time.
4. Preparation of 1000× Compound Working Solution and Cell Treatment with Compounds • (1) Preparation of the working solution with 5 times the initial concentration of the compound: For 3-fold dilution of the compound, 30 μL of the compound from a stock solution at 1000-fold concentration was taken, and 20 μL of DMSO was added to the subsequent wells. Then, 10 μL was transferred from one concentration to the next in sequence. For 5-fold dilution of the compound, 30 μL of the compound from a stock solution at 1000-fold concentration was taken, and 24 μL of DMSO was added to the subsequent wells. Then, 6 μL was transferred from one concentration to the next in sequence. 20 μL of DMSO was added to the vehicle control. The 1000-fold concentrated compound was diluted 200 times with culture medium, i.e., 1 μL of the 1000-fold diluted compound is added to 199 μL of culture medium, and the mixture was homogenized using a pipette. • (2) Compound addition: 25 μL of the 5-fold compound solution was added to the cell culture plate. • (3) The 96-well cell plate was returned to the incubator to culture OCI-LY10 (with either 3-fold or 5-fold dilution, incubated with compounds added for 5 days) and TMD-8 (with either 3-fold or 5-fold dilution, incubated with compounds added for 5 days).
The following steps were performed according to the instructions of Promega CellTiter-Glo luminescent cell viability assay kit (Promega-G7573). • (1) CellTiter-Glo buffer was melted and brought to room temperature. • (2) CellTiter-Glo substrate was brought to room temperature. • (3) CellTiter-Glo working solution was prepared by adding 10 mL of CellTiter-Glo buffer to a vial of CellTiter-Glo substrate to dissolve the substrate. • (4) The mixture was slowly vortexed and shaken to be fully dissolved. • (5) The cell culture plate was taken out and left for 30 minutes to equilibrate to room temperature. • (6) 60 μL of CellTiter-Go working solution was added per well (equal to half the volume of cell culture medium per well). The cell plate was wrapped in aluminum foil to be protected from light. • (7) The culture plate was shaken on an orbital shaker for 2 minutes to induce cell lysis. • (8) The culture plate was left at room temperature for 10 minutes to stabilize the luminescent signal. • (9) The luminescent signal was detected on a 2104 EnVision plate reader.
The inhibition rate (IIR) of the test compound was calculated using the following formula: IR (%)=(1−RLU compound/RLU vehicle control)*100%. The inhibition rates of compounds at different concentrations were calculated in Excel, and then GraphPad Prism software was used to plot inhibition curves and calculate relevant parameters, including minimum inhibition rate, maximum inhibition rate, and IC50.
In general terms: ATP-based viability assays read luminescence as a measure of living cells.

Test [2] has as its target T1, IKZF3 (Homo sapiens, UniProt Q96SW2+Q9UKT9).
T1 construct: host or cells: MM.1S cells
Description: In Cell Western of IKZF3 protein expression level in MM.1S cells. Type of test: cell-based. The note with it: IKZF3, MM.1S cells, 24 hours. The protocol: Experimental objective: The experiment aims to assess the degradation effect of the test compounds on IKZF1 and 1KZF3 proteins in MM.1S cells by evaluating the impact of the test compounds on the expression levels of IKZF1 and IZKZF3 proteins in MM.1S cells.
• Cell lines: MMN.1 S cell (sourced from ATCC; Cat. No CRL-2974) • Negative control: 0.100 DMSO.
• 1) Log phase MM.1 S cells were plated in a 96-well plate at 1.2×10^5 cells per well and cultured overnight; • 2) The next day, compounds were added with a starting concentration of 300 nM, diluted threefold across three replicate wells for 10 concentration gradients (including DMSO), and the cells were incubated for 24 hours in an incubator; • 3) The cells were centrifuged, and the supernatant was carefully removed. 150 μL of 4% paraformaldehyde fixative was added along the wall of the wells, avoiding contact with the bottom cells, and the cells were incubated at room temperature for 20 minutes; • 4) Lysis buffer was prepared by mixing 0.5 mL of 10% Triton X-100 with 49.5 mL of PBS until homogenous; • 5) 200 μL of lysis buffer was added along the well walls, again avoiding the bottom cells, and incubated on a shaker at room temperature for 5 minutes; • 6) The wells were washed four times; • 7) 150 μL of Licor […] […]

pIC50: −log10 of the molar value. Where a name gives a salt, the structure may show the parent alone.

T1 sequence (Q9UKT9 whole entry): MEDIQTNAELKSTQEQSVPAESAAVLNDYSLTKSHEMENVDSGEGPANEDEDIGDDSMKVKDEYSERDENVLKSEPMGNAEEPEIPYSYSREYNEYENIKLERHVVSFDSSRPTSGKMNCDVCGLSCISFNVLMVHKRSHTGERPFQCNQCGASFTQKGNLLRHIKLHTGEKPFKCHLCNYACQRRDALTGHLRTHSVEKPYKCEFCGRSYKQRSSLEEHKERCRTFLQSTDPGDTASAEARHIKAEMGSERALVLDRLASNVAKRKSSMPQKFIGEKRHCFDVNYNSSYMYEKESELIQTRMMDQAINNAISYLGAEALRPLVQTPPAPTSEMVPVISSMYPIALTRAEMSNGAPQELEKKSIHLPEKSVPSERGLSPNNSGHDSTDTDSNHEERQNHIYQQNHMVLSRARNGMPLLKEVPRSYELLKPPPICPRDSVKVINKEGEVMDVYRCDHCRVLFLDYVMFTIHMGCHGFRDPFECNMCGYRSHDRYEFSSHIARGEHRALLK
T1 sequence (Q96SW2 whole entry): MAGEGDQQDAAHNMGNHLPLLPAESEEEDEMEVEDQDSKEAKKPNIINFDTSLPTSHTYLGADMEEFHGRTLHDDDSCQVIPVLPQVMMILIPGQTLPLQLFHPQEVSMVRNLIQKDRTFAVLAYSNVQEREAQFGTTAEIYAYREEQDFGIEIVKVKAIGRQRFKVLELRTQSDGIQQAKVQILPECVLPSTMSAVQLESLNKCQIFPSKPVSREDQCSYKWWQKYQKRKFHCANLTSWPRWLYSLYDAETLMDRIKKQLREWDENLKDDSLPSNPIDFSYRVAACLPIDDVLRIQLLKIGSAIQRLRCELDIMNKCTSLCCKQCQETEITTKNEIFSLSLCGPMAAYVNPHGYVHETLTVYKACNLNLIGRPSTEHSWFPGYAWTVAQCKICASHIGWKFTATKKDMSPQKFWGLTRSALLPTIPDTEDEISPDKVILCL
T1 sequence (Q16531 whole entry partner): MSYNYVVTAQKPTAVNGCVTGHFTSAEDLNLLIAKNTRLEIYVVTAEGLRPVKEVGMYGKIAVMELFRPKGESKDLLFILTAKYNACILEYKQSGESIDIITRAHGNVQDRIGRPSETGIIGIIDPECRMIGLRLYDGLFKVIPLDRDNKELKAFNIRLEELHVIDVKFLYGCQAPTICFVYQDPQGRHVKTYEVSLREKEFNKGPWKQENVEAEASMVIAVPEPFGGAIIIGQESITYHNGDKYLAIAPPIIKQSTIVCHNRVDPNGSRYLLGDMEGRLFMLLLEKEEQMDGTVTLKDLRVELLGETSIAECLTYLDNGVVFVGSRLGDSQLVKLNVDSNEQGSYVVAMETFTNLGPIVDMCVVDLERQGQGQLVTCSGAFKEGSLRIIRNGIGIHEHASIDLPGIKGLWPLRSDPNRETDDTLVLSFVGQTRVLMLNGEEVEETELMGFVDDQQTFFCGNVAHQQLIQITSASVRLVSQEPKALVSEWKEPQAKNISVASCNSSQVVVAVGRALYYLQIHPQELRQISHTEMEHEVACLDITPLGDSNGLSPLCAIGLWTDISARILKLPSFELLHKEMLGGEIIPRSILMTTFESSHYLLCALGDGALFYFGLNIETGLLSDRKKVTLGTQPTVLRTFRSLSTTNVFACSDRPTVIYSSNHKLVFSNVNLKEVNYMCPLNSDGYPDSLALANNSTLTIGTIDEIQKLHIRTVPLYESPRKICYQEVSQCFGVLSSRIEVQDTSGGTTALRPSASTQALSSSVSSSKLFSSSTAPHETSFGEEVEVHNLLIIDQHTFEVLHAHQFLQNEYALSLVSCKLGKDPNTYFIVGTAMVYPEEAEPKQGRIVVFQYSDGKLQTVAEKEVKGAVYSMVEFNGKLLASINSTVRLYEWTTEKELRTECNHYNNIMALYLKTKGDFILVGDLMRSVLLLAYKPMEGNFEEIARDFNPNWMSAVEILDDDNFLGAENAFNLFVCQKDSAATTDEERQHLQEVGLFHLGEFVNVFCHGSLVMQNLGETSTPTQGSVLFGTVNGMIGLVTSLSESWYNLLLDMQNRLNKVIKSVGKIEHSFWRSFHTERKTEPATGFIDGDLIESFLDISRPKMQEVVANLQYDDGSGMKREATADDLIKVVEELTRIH

In test [1], `O=C1CCC(c2coc3cc(NC(=O)CN4CCN(C[C@H]5CC[C@H](N6CC(NC(=O)c7coc(-c8ccnc(NCC9CC9)c8)n7)C(C(F)F)N6)CC5)CC4)ccc23)C(=O)N1` (stereo partly drawn) [Hydrochloride of WX002] gave a pIC50 of 7.04 and a Maximum inhibition rate of 83.31%.

Turning to `O=C1CCC(c2coc3ccc4c(NC(=O)CN5CCN(C[C@H]6CC[C@H](n7cc(NC(=O)c8coc(-c9ccnc(NCC%10CC%10)c9)n8)c(C(F)F)n7)CC6)CC5)cccc4c23)C(=O)N1` (stereo partly drawn) [Trifluoroacetate of WX011], in test [1], the pIC50 is 7.77 and the Maximum inhibition rate is reported as 94.65%.

In test [1], `O=C1CCC(c2noc3ccc4c(NC(=O)CN5CCN(C[C@H]6CC[C@H](n7cc(NC(=O)c8coc(-c9ccnc(NCC%10CC%10)c9)n8)c(C(F)F)n7)CC6)CC5)cccc4c23)C(=O)N1` (stereo partly drawn) [Hydrochloride of WX014] gave a pIC50 of 7.99 and a Maximum inhibition rate of 89.86%.

In test [1], `CC(C)(O)c1cc2nc([C@H]3CC[C@H](CN4CCN(CC(=O)Nc5ccc6c(C7CCC(=O)NC7=O)noc6c5)CC4)CC3)sc2cc1NC(=O)c1cccc(C(F)(F)F)n1` (stereo partly drawn) [Formate of WX026] showed a pIC50 of 8.06 and a Maximum inhibition rate of 99.92%.

In test [1], `O=C1CCC(c2noc3ccc4c(NC(=O)C(F)(F)C5CCN(CC6CCC(n7cc(NC(=O)c8coc(-c9ccnc(NCC%10CC%10)c9)n8)c(C(F)F)n7)CC6)CC5)cccc4c23)C(=O)N1` (stereo not drawn) [Hydrochloride of WX018] showed a pIC50 of 7.89 and a Maximum inhibition rate of 99.53%. The compound further gave a DC50 in test [2] of 8.34 nM. Besides, in test [2] (MM1.S, read-out: Maximum degradation rate Dmax), the Dmax is 96.5%.

Source of the values: patent US20240400547A1, “2,6-PIPERIDINEDIONE COMPOUND AND APPLICATION THEREOF” (MEDSHINE DISCOVERY INC., priority 2021, published 2024).
